Entries after “also recorded” stand apart in the source; their conditions may differ. Ends that are not written are not given here. FAM = 5(6)-carboxyfluorescein
Tests used:
human glioma cells (U87) = test: Cellular internalization by confocal microscopy; type: cell-based; conditions: 10 µM, 30 min incubation (Figure 3)
Method: (§1) U87 cells (1×10^4) were seeded in Lab-Tek® 8-well chamber slides to reach 50% confluence one day prior to experimentation. After 30 min of incubation with the peptide constructs in complete medium at 37°C, cells were washed four times with PBS, followed by the addition of trypan blue (0.1 %) in OptiMEM and examined using Olympus IX81 inverted microscope equipped with FluoView 1000 confocal system using a 60x water-immersion and 100x oil-immersion objectives and excitation at 488 nm (fluorescein). For the membrane association experiments the cells were incubated with FAM-labeled peptide for 30 min at 37°C in complete medium. After the incubation period, cells were washed once with PBS and re-suspended in fresh OptiMEM medium.
(§2) The cellular uptake of the chimeric peptides gHoPe2 and gHoPe3 in U87 cells, using confocal microscopy and flow cytometry is depicted in Figures 3 and 4, respectively.

[1] = tested on: intracranial glioblastoma; test: Biodistribution of FAM-labelled peptides, intracranial tumour model; type: in vivo, mice; conditions: i.v.; for uptake in lungs, heart, spleen, muscle and skin: animals with intracranial tumours, 3 h (Figure 8); for localization in intracranial tumour: 3 h before tissue collection, FAM fluorescence (Figures 6, 7)
Method: (§3) Localization of the peptide vectors was assessed postmortem after injecting FAM-labeled peptides in homozygous female nude mice (C.Cg/AnNTac-Foxn1nu, Taconic), bearing tumor xenografts either intracranially or subcutaneously. 8×10^5 U87 cells were resuspended in 100 µl (s.c tumor model) or in 5 µl (intracranial tumor model) of fresh DMEM medium, without serum and antibiotics. The xenografting was performed by implanting the cell suspension subcutaneously or intracranially into one of the striatums (stereotaxic coordinates A=+1, L=+2, V=+3.5). At the appearance of the first signs of tumor growth (for the subcutaneous tumors: tumor size of approx 300 mm^3; for the intracranial tumors: the first sign is usually weight loss), mice were injected i.v. (via tail vein) with the peptide constructs. For the biodistribution, 100 µl of 200 µM FAM-labeled peptide suspension (in saline) was used. This represents a dose of 4 mg/kg for a mouse of 20 g. At 3h post-injection, the animals were anesthetized and intracardially perfused with 50 ml of PBS, followed by 50 ml of fixation solution (4% w/v paraformaldehyde in PBS, pH 7.4). Tissues were collected, postfixed for 2h in the same fixation solution, cryoprotected in sucrose (10% for 24h, followed by 30% for 1 week, at 4°C), snap frozen in 2-methylbutane (AppliChem) kept on dry ice. The tissues were cut on a cryostat with a thickness of 10-15 µm, counterstained with DAPI (AppliChem) and mounted using Vectashield (Vector Labs) mounting media.
(§4) The biodistribution of FAM-labeled gHoPe2 was determined in two mouse tumour models. FAM-labeled gHo and gHoPe2 were injected 3h before tissue collection. The circulation time of 3 h was chosen from initial pilot experiments with 1 h, 3h, 6h and 24h circulation times, where the highest fluorescence in the tumor occurred at 3h.
Secondly, biodistribution of FAM-labeled gHo and gHoPe2, as well as FAM-labeled pVEC and gHoPe3 was assessed in a mouse model of intracranial glioblastoma. To estimate the general distribution of gHoPe2 within the glioma-containing brain, the whole coronal section was reconstructed from single microscopic images.

HEK cells = test: Confocal microscopy, association of FAM-labelled targeting peptide with cells; type: cell-based, human; conditions: 20 µM, 30 minutes
Method: (§5) The human embryonic kidney 293 cell line (HEK 293) and human glioblastoma-astrocytoma, epithelial-like cell line U87 MG (American Type Culture Collection via LGC, Sweden) and cervical cancer HeLa cells were cultured in Dulbecco's Modified Eagle Medium (DMEM) with L-glutamine. Medium was supplemented with 10% FBS, sodium pyruvate (1 mM), penicillin (100 U/ml), streptomycin (100 µg/ml) and 1% nonessential amino acids (further denoted as complete medium) (PAA Laboratories GmbH, Austria). Cell cultures were cultivated at 37°C in a humidified 5% CO2 incubator.
as §1
(§6) To confirm binding of the targeting peptide with glioma cells, gHo peptide was labeled with fluorescent marker FAM (see the composition in Table 1) and incubated with U87 glioma cells as well as with two non-neuronal cell lines, HeLa and HEK, for 30 minutes at the room temperature, followed by mild washing of the cells.

U87 glioma cells = test: as above; type: cell-based, human
Method: as §5, §1, §6

HeLa cells = test: as above; type: cell-based; conditions: 20 µM, 30 minutes
Method: as §5
as §1, with “OptiMEM medium. […]” for “OptiMEM medium.”

human glioma cells = test: Cellular uptake by flow cytometry (FACS); type: cell-based; conditions: 30 min incubation (Figure 4)
Method: U87, HEK and Hela cells (5×10^4) were seeded 24 h prior to experiments into 24-well plates. Cells were incubated for 30 min in complete media after treatment with the peptide constructs. Thereafter, cells were washed four times with PBS and once with trypsin, suspended in ice-cold PBS and flow cytometry analysis was carried out with a BD LSR II flow cytometer (BD Biosciences, San Jose, CA, USA) equipped with a 488 nm argon laser and analyzed with FACSDiva software. The filter settings for excitation and emission were 480/530 nm bandpass (FL1) for FITC. Live cells were gated by forward/side scattering from a total of 10000 events.
as §2

U87 cells [2] = test: LDH leakage assay (membrane integrity); type: cell-based, human; conditions: FAM-labelled peptides, up to 20 µM, 48h, compared to 0.2% of Triton
Method: Membrane integrity was evaluated using LDH leakage assay (SIGMA-ALDRICH™ St. Louise, MO, USA), which measures lactate dehydrogenase release. Briefly, 1×10^4 cells were seeded 24h in 96-well plates before treatment with the peptides or peptide-drug conjugates, which was conducted in complete medium for 48h. Thereafter, LDH leakage was assessed according to the manufacturer's protocol. Untreated cells were defined as no leakage and 100% leakage was defined as total LDH release by lysing cells in 0.2% Triton X-100 in HKR buffer.
(§7) All figures are presented as mean ± SEM. The cell uptake data represent three independent experiments performed in duplicate. For toxicity measurements, a decrease in viability was considered significant at p <.001 using ANOVA Dunnett's multiple comparison test.

U87 cells [3] = test: MTS cell viability (proliferation) assay; type: cell-based, human; conditions: FAM-labelled peptides, up to 20 µM, 24h
Method: Long-term toxicity was evaluated using an MTS proliferation assay (Promega, Madison, WI, USA). The MTS assay measures the activity of mitochondrial dehydrogenases to convert tetrazolium salts into formazan. Briefly, 1×10^4 cells were seeded 24h in 96-well plates before treatment with the peptides or peptide-drug conjugates, which was conducted in complete medium for 24h. Thereafter, MTS proliferation assay was used according to the manufacturer's protocol. Untreated cells were defined as 100% viable.
as §7

subcutaneous U87 tumor = test: Biodistribution of FAM-labelled peptides, subcutaneous tumour model; type: in vivo, mice; conditions: for localization in tumor tissue: i.v., 3 h before tissue collection, FAM fluorescence of cryosections (Figure 5)
Method: as §3, §4
Firstly, a mouse model of subcutaneous U87 tumor was used. […] We detected no FAM-labeled gHo in tumor tissue and none of the peptides in the (intact) brain tissue, the kidney, and liver.

subcutaneous U87 tumors = test: Antitumour effect in vivo, tumour growth; parameters: species or system mice; conditions: 8.3 mg/kg (369 µM, 100 µl) i.v. twice a week; Tukey post-hoc p<.05 (Figure 13)
Method: Localization of the peptide vectors was assessed postmortem after injecting FAM-labeled peptides in homozygous female nude mice (C.Cg/AnNTac-Foxn1nu, Taconic), bearing tumor xenografts either intracranially or subcutaneously. 8×10^5 U87 cells were resuspended in 100 µl (s.c tumor model) or in 5 µl (intracranial tumor model) of fresh DMEM medium, without serum and antibiotics. The xenografting was performed by implanting the cell suspension subcutaneously or intracranially into one of the striatums (stereotaxic coordinates A=+1, L=+2, V=+3.5). At the appearance of the first signs of tumor growth (for the subcutaneous tumors: tumor size of approx 300 mm^3; for the intracranial tumors: the first sign is usually weight loss), mice were injected i.v. (via tail vein) with the peptide constructs. For the biodistribution, 100 µl of 200 µM FAM-labeled peptide suspension (in saline) was used. This represents a dose of 4 mg/kg for a mouse of 20 g. […]
The tumor treatments were performed using 1 mg/kg doxorubicin (369 µM, 100 µl, for an animal of 20 g) and an equivalent dose (8.3 mg/kg) of dox-gHoPe2 (369 µM, 100 µl) i.v. twice a week. The subcutaneous tumor dimensions were measured using calibre; tumor volume was calculated as (length × width^2)/2.
The efficacy of dox-gHoPe2 was assessed in the model of subcutaneous U87 tumors. […]

Substance: NHQQQNPHQPPM-NH2 [gHo, glioma-homing targeting peptide]
- Cellular internalization (human glioma cells (U87)): did not internalize
- uptake in lungs, heart, spleen, muscle and skin [1]: No uptake
- localization in intracranial tumour [1]: not
- binding to HEK cells (HEK cells): not and did not bind
- Association of the targeting peptide gHo with glioma cells (U87) (U87 glioma cells; 20 µM (Figure 2)): associated
- association of gHo with U87 (U87 glioma cells; FAM-labelled peptide, all tested concentrations 1-20 µM, 30 minutes, mild washing): confirmed association
- binding to HeLa cells (HeLa cells): not and did not bind
- cellular uptake (human glioma cells): did not internalize
- LDH leakage (membrane leakage) (U87 cells [2]): did not induce any significant membrane leakage

Substance: LLIILRRRIRKQAHAHSK-NH2 [FAM-pVEC] ({FAM}-LLIILRRRIRKQAHAHSK-NH2) [pVEC N-terminally labelled with 5(6)-carboxyfluorescein, reference compound]
- Cellular internalization (human glioma cells (U87)): exhibited cellular uptake of varying degrees
- cellular uptake (human glioma cells): highest
- LDH leakage (membrane leakage) (U87 cells [2]): did not affect cell viability
- cell viability (MTS) (U87 cells [3]): did not affect cell viability

Substance: LLIILRRRIRKQAHAHSK-NHQQQNPHQPPM-NH2 [FAM-gHoPe2]
- Cellular internalization (human glioma cells (U87)): exhibited cellular uptake of varying degrees
- uptake in lungs, heart, spleen, muscle and skin [1]: No uptake
- presence in adjacent intact brain, kidney and liver ([1]; 3 h (Figure 7)): not
- localization in intracranial tumour [1]: localizes in tumours
- localization in intracranial tumour ([1]; listed as FAM-labelled gHoPe2): global FAM localization in the tumour area
- localization in intracranial tumour ([1]; listed as gHoPe2): can be seen in the tumor area; also recorded: specific localization
- localization in the adjacent intact brain ([1]; whole coronal section, 3 h (Figure 6)): not
- localization in tumor tissue (subcutaneous U87 tumor): localizes in tumours; also recorded: homing
- circulation time of the highest fluorescence in the tumor (subcutaneous U87 tumor; initial pilot experiments with 1 h, 3h, 6h and 24h circulation times, tumour model not stated): 3 h
- cellular uptake (human glioma cells): highest; also recorded: significantly differed from the uptake values of FAM-gHoPe3 (main effect p<.01, Tukey post hoc) and FAM-gHo (p<.001)
- LDH leakage (membrane leakage) (U87 cells [2]): did not affect cell viability
- LDH leakage (membrane leakage) (U87 cells [2]; listed as gHoPe2): did not induce any significant membrane leakage
- cell viability (MTS) (U87 cells [3]): did not affect cell viability
- cell viability (MTS) (U87 cells [3]; listed as gHoPe2): did not induce any toxic effects

Substance: XCLLIILRRRIRKQAHAHSK-NHQQQNPHQPPM-NH2 [Dox-gHoPe2]
- tumor size versus untreated group (subcutaneous U87 tumors): significantly smaller

Substance: NHQQQNPHQPPM-NH2 [FAM-gHo] ({FAM}-NHQQQNPHQPPM-NH2; also: FAM label, place not given here) [gHo N-terminally labelled with 5(6)-carboxyfluorescein]
- Cellular internalization (human glioma cells (U87)): no uptake
- localization in tumor tissue (subcutaneous U87 tumor): detected no

Substance: LLIILRRRIRKQAHAHSK-NH2 [pVEC, 18-amino acid cell-penetrating peptide derived from murine vascular endothelial-cadherin, reference compound]
- Cellular internalization (human glioma cells (U87)): internalized very efficiently
- LDH leakage (membrane leakage) (U87 cells [2]): did not induce any significant membrane leakage
- cell viability (MTS) (U87 cells [3]): did not induce any toxic effects

Substance: NHQQQNPHQPPM-LLIILRRRIRKQAHAHSK-NH2 [FAM-gHoPe3]
- Cellular internalization (human glioma cells (U87)): exhibited cellular uptake of varying degrees; also recorded: internalized, but to a lesser extent
- LDH leakage (membrane leakage) (U87 cells [2]): did not affect cell viability
- LDH leakage (membrane leakage) (U87 cells [2]; listed as gHoPe3): did not induce any significant membrane leakage
- cell viability (MTS) (U87 cells [3]): did not affect cell viability
- cell viability (MTS) (U87 cells [3]; listed as gHoPe3): did not induce any toxic effects

Reference: patent EP2671597A1, “Chimeric constructs between glioma-homing peptide and cell-penetrating peptides, gHoPe2” (Cepep III AB, priority 2012, dated 2013)
